Read-outs that look alike come from different tables or passages of the source.
How the values were obtained:
[1] = biological target: T1, mouse PDE4B3 dimer S133D(PKA) (Mus musculus, UniProt Q8VBU5, S118D); assay: PDE4 kinetic cAMP hydrolysis coupled-enzyme assay; assay type: biochemical
T1 construct: hexahistidine; Proteos Inc; host or cells: Baculovirus-infected Sf9 insect cells
T1 sequence (Q8VBU5 1-721 S118D): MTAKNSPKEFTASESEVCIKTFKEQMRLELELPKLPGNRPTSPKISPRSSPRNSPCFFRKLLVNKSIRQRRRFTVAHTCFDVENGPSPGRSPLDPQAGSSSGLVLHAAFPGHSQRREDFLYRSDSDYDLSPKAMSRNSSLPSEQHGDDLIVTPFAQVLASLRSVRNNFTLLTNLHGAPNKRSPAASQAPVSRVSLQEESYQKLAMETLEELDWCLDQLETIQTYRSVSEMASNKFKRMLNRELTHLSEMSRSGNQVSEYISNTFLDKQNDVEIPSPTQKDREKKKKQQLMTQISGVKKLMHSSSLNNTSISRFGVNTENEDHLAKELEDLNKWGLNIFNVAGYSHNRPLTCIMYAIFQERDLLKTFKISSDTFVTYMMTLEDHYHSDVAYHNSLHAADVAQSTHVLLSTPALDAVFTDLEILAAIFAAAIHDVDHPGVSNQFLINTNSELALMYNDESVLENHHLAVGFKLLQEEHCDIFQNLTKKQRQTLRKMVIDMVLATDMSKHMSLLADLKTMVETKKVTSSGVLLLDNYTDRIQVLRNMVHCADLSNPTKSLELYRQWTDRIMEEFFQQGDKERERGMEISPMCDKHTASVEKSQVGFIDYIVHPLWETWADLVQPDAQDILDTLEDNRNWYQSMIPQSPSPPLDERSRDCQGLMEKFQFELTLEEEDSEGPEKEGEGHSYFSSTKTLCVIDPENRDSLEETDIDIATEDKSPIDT
Experimental: (§3) Kinetic assay of cAMP hydrolysis by purified PDE4 enzymes is measured by coupling the formation of the PDE4 reaction product 5′-adenosine monophosphate (AMP) to the oxidation of reduced nicotinamide adenine dinucleotide (NADH). This is accomplished with three coupling enzymes (yeast myokinase, pyruvate kinase, and lactate dehydrogenase), and allows fluorescent determination of reaction rates [19]. To measure inhibition of PDE4 enzymes by test compounds, data were percent normalized relative to controls and are presented as percent inhibition.
(§4) Kinetic assay of cAMP hydrolysis by purified PDE4 enzymes is measured by coupling the formation of the PDE4 reaction product 5′-adenosine monophosphate (AMP) to the oxidation of reduced nicotinamide adenine dinucleotide (NADH). This is accomplished with three coupling enzymes (yeast myokinase, pyruvate kinase, and lactate dehydrogenase), and allows fluorescent determination of reaction rates.^19 Assays were performed in 96-well plates in a total volume of 200 μl/well. Compounds were dissolved in dimethylsulfoxide (DMSO) and added to plates in a volume of 10 μl followed by addition of 165 μl of assay mix. Plates were pre-incubated at 25 °C for 10 min. The enzyme reaction was initiated by the addition of 25 μl of cAMP followed by thorough mixing. […] Initial rates (slopes) were determined from linear portions of the progress curves. […]

ICR mice [2] = assay: Antidepressant-like effect models (tail suspension, forced swim); assay type: in vivo, mouse; settings: Supplementary Figure S3
Text: Data are presented as mean ± S.E.M. (n = 10 male mice); * p < 0.05 and ** p < 0.01 (Student’s t-test) versus vehicle-treated group.

humanized PDE4D mice [3] = assay: Novel object recognition, 24 h inter-trial interval; assay type: in vivo, mouse
Experimental: The novel object recognition test was performed as described elsewhere [32, 33]. Briefly, the task procedure consists of three phases: habituation phase on day 1 for 10 min, training (T1) phase on day 2 for 5 min, and testing (T2) phase on day 3 for 5 min. The duration each animal spent exploring the objects was recorded. Time spent exploring the identical objects in T1 was recorded as a1 and a2; time spent exploring the familiar and the novel objects in T2 was recorded as “a” and “b”, respectively. The following variables were calculated: e1 = a1 + a2, e2 = a + b, the relative discrimination index d2 = (b–a)/e2.
Novel object recognition. Mice were handled for 3-5 min for 5 days in a row. The novel object recognition test was performed in a Plexiglas open field box (L30 cm, W50 cm, H40 cm) as described elsewhere^64,65. Briefly, the task procedure consists of three phases: habituation, training (T1), and testing (T2). In the habituation phase (day 1), each animal is allowed to freely explore the apparatus for 10 min; then the animal is returned to its home cage. During the training phase (day 2), a single animal is placed in the center of the open field containing two identical objects located on the diagonal of the field, and allowed to explore for 5 min. After a retention interval after T1 of 24 h (long-term recall) or 1 h (scopolamine-impairment model), the animal was subjected to the T2 testing phase for 5 min, during which one familiar object and one novel object were presented. The arena and objects were thoroughly wiped with 70% ethanol after each trial to avoid the presence of any olfactory cues. The animals were considered to be exploring the object when directing their nose to the object at a distance of no more than 2 cm and/or touching or sniffing the object. The duration each animal spent exploring the objects was recorded. Time spent exploring the identical objects in T1 was recorded as a1 and a2; time spent exploring the familiar and the novel objects in T2 was recorded as ‘a’ and ‘b’, respectively. The following variables were calculated: e1 = a1 + a2, e2 = a + b, the relative discrimination index d2 = (b – a)/e2.

humanized PDE4D mice [4] = assay: Y-maze spontaneous alternation test; assay type: in vivo, mouse; settings: humanized PDE4D mice, oral gavage 1 h prior to test
Experimental: The test consists of a single 5 min trial, in which the mouse was allowed to explore all three arms of the Y-maze [31]. Spontaneous alternation (%) was defined as consecutive entries in three different arms, divided by the number of possible alternations (total arm entries minus 2).
Y-maze spontaneous alternation test. The Y-maze apparatus made of matt blue Plexiglas had three identical arms (L 40 cm, W 5 cm, H 15 cm) placed at 120° from each other. The test consisted of a single 5 min trial, in which the mouse was allowed to explore all three arms of the Y-maze. The start arm was varied between animals to avoid placement bias. Spontaneous Alternation (%) was defined as consecutive entries in 3 different arms, divided by the number of possible alternations (total arm entries minus 2). Mice with less than 8 arm entries during the 5-min trial were excluded from the analysis.

humanized PDE4D mice [5] = test system: humanized PDE4D mice
[6] = biological target: PDE4 binding sites in humanized PDE4D mouse brain membranes; assay: [3H]-rolipram radioligand binding to brain membranes
Experimental: Mice were killed by decapitation, and the brains were immediately dissected on ice and homogenized in binding buffer using a Polytron homogenizer (Brinkman Instruments, Westbury, NY). The membrane fraction of the homogenate was obtained by centrifugation at 15,000 × g for 15 min, and resuspension of the pellet in the binding buffer.
Mice were killed by decapitation, and the brains were immediately dissected on ice and homogenized in binding buffer (50 mM Tris-HCl, 5 mM MgCl2, pH 7.5) using a Polytron homogenizer (Brinkman Instruments, Westbury, NY). The membrane fraction of the homogenate was obtained by centrifugation at 15,000 g for 15 min, and resuspension of the pellet in the binding buffer^29.
At the end of the incubation, reactions were stopped by adding 5 ml of the ice-cold binding buffer and rapid vacuum filtration through glass fiber filters that had been soaked in 0.3% polyethyleneimine. The filters were then washed twice with 5 ml of the ice-cold binding buffer, and discs of filter paper were collected for measurement of radioactivity by liquid scintillation counting.

[7] = test system: brain cAMP, wild-type mice; assay: Brain cAMP ELISA after oral dosing; assay type: in vivo, mouse
Experimental: (§1) On the day of assay, frozen brain samples were analyzed using the cAMP complete ELISA kit (Enzo Life Sciences, Farmingdale, NY) according to the assay protocol.
(§2) Concentrations of cAMP in mouse brain samples were measured using an enzyme-linked immunosorbent assay (ELISA). The mice were treated with various doses of BPN-14770 or vehicle. 1 h after dosing, mice were killed by rapid decapitation, and brains were immediately were dissected on ice, flash frozen in liquid nitrogen, and stored at -80 ̊C. On the day of assay, brain samples (one hemisphere) were ground to a fine powder under liquid nitrogen in a stainless steel mortar, followed by addition of 10 volumes of 0.1 M HCl. Tissue homogenates were then centrifuged at 800ˣg for 15 min. Supernatants were collected for immediate assay or stored frozen for assay later using the cAMP complete ELISA kit (Enzo Life Sciences, Farmingdale, NY) according to the assay protocol ^66.

[8] = test system: brain cAMP, humanized PDE4D mice; assay: Brain cAMP ELISA after oral dosing; assay type: in vivo, mouse
Experimental: as §1, §2

ICR mice [9] = assay: Anxiolytic-like effect models (marble burying, elevated-plus maze); assay type: in vivo, mouse; settings: Supplementary Figure S4
Text: Data are presented as mean ± S.E.M. (n = 10 male mice); * p < 0.05 and *** p < 0.001 (Student’s t-test) versus vehicle-treated group.

[10] = biological target: T2, humanized mouse PDE4D7 dimer S129D(PKA), Y271F(UCR2) (Mus musculus, UniProt Q01063, S129D/Y271F); assay: biochemical; assay type: biochemical
T2 construct: hexahistidine; Proteos Inc; host or cells: Baculovirus-infected Sf9 insect cells
T2 sequence (Q01063 1-747 S129D/Y271F): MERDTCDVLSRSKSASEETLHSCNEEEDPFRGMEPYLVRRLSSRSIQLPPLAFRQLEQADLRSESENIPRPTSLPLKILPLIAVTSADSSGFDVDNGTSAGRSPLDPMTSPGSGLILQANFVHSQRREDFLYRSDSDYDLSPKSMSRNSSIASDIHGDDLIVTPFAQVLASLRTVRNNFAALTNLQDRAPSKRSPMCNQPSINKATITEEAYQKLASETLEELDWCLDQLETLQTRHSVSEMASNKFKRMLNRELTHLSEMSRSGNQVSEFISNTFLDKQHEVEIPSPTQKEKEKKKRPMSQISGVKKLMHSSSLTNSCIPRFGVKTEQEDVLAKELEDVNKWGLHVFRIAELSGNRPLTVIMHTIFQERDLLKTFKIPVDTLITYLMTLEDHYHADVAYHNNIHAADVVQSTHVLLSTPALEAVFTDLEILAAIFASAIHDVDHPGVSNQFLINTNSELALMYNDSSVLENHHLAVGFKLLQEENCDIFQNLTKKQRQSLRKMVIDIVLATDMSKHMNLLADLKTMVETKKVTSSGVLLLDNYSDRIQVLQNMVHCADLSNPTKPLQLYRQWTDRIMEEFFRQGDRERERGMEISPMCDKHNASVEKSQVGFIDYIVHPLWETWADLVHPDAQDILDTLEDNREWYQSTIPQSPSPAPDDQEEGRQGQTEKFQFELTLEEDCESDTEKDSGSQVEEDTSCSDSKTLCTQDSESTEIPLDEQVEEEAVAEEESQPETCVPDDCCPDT
Experimental: as §3, §4

[11] = Pharmacokinetics and plasma exposure in mice

SMILES: O=C(O)Cc1ccc(Cc2cc(-c3cccc(Cl)c3)nc(C(F)(F)F)c2)cc1 [BPN14770]
- IC50 [1]: 2120 ± 527 nM
- antidepressant-like effect (ICR mice [2]): ineffective
- dose range for effect on neurochemical and cognitive biomarkers (humanized PDE4D mice [3]; humanized PDE4D mice): 0.01–0.03 mg/kg PO
- greater potency for improving memory in humanized vs wild-type mice (humanized PDE4D mice [3]; memory tests overall): 100 fold
- MED for improved % alternation in Y-maze (humanized PDE4D mice [4]): 0.01 mg/kg
- projected tolerability in non-rodent species, plasma (humanized PDE4D mice [5]; from surrogate measure of emesis): greater than 1300 ng/ml
- window in exposure between beneficial doses and plasma exposure predicted to cause emesis (humanized PDE4D mice [5]; humanized PDE4D mice): 40- to 100 fold
- NOAEL (no observed adverse effect level), ketamine/xylazine test (humanized PDE4D mice [5]; mouse, in vivo): 1 mg/kg PO
- Ki ([6]; hPDE4D, inhibition of [3H]-rolipram binding, read-out: Two-site Ki1): 2.8 ± 1.08 nM
- Ki ([6]; hPDE4D, inhibition of [3H]-rolipram binding, read-out: Two-site Ki2): 186 ± 19 nM
- Ki ([6]; read-out: One-site Ki): 82.1 ± 6.03 nM
- effect on brain cAMP ([7]; 0.3 mg/kg PO): ineffective
- minimum effective dose (MED) for increase in brain cAMP ([7]; 1 h after oral dose): 1 mg/kg PO
- increase in brain cAMP ([8]; humanized PDE4D mice, 0.3 mg/kg PO): almost three-fold
- minimum effective dose (MED) for increase in brain cAMP ([8]; humanized mice, 1 h after oral dose): 0.1 mg/kg PO
- anxiolytic-like effect (ICR mice [9]): ineffective
- increase in potency by mutation of mouse UCR2 tyrosine 271 to phenylalanine ([10]; Y271F versus wild-type mouse PDE4D7): 46 fold
- IC50 ([10]; mouse PDE4D7 dimer, S129D, Y271F (humanized UCR2)): 2.9 ± 0.3 nM
- plasma exposure at the NOAEL ([11]; 1 mg/kg PO, 1 h post dose, data not shown): 1305 ± 113 ng/mL
- Kp ([11]; C57bl/6, mouse, brain and plasma): 0.4 to 0.42
- bioavailability ([11]; C57bl/6, mouse, in vivo, po): 70 to 80%
- half-life ([11]; C57bl/6, mouse, plasma and brain): 8 to 10 h

Source: paper PMC6135860 (Neuropsychopharmacology, 2018)
